Data from ChEMBL document CHEMBL1201862, “PubChem BioAssay data set” (2004).
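Cells were grown in 96-well plates and exposed to each compound for 48 hours at five concentrations; endpoints were interpolated linearly between bracketing concentrations, or set to the highest concentration if not reached. Here, GI50 denotes the concentration required for 50% inhibition of growth.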 Activity calls are given as the source filed them. No stated cut-off is given here; in the data, active = GI50 up to about 1.1 µM and inactive = higher.

Legend:
Assay in all cases: NCI anticancer screen, dose series, 48 h
LOX IMVI = test system: LOX IMVI
UO-31 = test system: UO-31
NCI-H460 = test system: NCI-H460
OVCAR-8 = test system: OVCAR-8
HOP-62 = test system: HOP-62
SF-268 = test system: SF-268
UACC-257 = test system: UACC-257
HCC 2998 = test system: HCC 2998
EKVX = test system: EKVX
OVCAR-3 = test system: OVCAR-3
SNB-75 = test system: SNB-75
RPMI-8226 = test system: RPMI-8226
NCI-H23 = test system: NCI-H23
DLD-1 = test system: DLD-1
HCT-116 = test system: HCT-116
SR = test system: SR

SMILES	GI50 (LOX IMVI)	GI50 (UO-31)	GI50 (NCI-H460)	GI50 (OVCAR-8)	GI50 (HOP-62)	GI50 (SF-268)	GI50 (UACC-257)	GI50 (HCC 2998)	GI50 (EKVX)	GI50 (OVCAR-3)	GI50 (SNB-75)	GI50 (RPMI-8226)	GI50 (NCI-H23)	GI50 (DLD-1)	GI50 (HCT-116)	GI50 (SR)
CCCCCCCCCC1CC(=O)OC23CCCC(=O)C12O3 (configuration not stated)	70.5 µM (inactive)	> 100 µM (inactive)	> 100 µM (inactive)	52.1 µM (inactive)	> 100 µM (inactive)	> 100 µM (inactive)	> 100 µM (inactive)	56.8 µM (inactive)	> 100 µM (inactive)	> 100 µM (inactive)	> 100 µM (inactive)	> 100 µM (inactive)	> 100 µM (inactive)	98.6 µM (inactive)	> 100 µM (inactive)	–
COc1ccc2c(c1)C1C(CO2)C(c2ccccc2)=NN1c1ccccc1 (configuration not stated)	> 100 µM (inactive)	> 100 µM (inactive)	> 100 µM (inactive)	> 100 µM (inactive)	> 100 µM (inactive)	89.3 µM (inactive)	> 100 µM (inactive)	> 100 µM (inactive)	> 100 µM (inactive)	> 100 µM (inactive)	0.441 µM (active)	48.1 µM (inactive)	> 100 µM (inactive)	> 100 µM (inactive)	> 100 µM (inactive)	–
O=S(=O)(c1ccccc1)C1CN2OC1(S(=O)(=O)c1ccccc1)CC21CCCCC1 (configuration not stated)	> 100 µM (inactive)	42.9 µM (inactive)	92.5 µM (inactive)	> 100 µM (inactive)	> 100 µM (inactive)	> 100 µM (inactive)	> 100 µM (inactive)	> 100 µM (inactive)	> 100 µM (inactive)	> 100 µM (inactive)	> 100 µM (inactive)	86.1 µM (inactive)	> 100 µM (inactive)	> 100 µM (inactive)	> 100 µM (inactive)	52.6 µM (inactive)
COc1cc2c(cc1OC)C(CC(=O)NN=C(C)C)NCC2 (configuration not stated)	> 100 µM (inactive)	> 100 µM (inactive)	> 100 µM (inactive)	> 100 µM (inactive)	> 100 µM (inactive)	> 100 µM (inactive)	> 100 µM (inactive)	> 100 µM (inactive)	> 100 µM (inactive)	> 100 µM (inactive)	> 100 µM (inactive)	> 100 µM (inactive)	> 100 µM (inactive)	> 100 µM (inactive)	> 100 µM (inactive)	> 100 µM (inactive)
O=C(Nc1cccc([N+](=O)[O-])c1)/C(=N\NC(=O)c1ccncc1)c1nc2ccc([N+](=O)[O-])cc2nc1O	27.6 µM (inactive)	21.9 µM (inactive)	54 µM (inactive)	50.1 µM (inactive)	70 µM (inactive)	40.7 µM (inactive)	46.7 µM (inactive)	35.4 µM (inactive)	38 µM (inactive)	> 100 µM (inactive)	–	49.4 µM (inactive)	68.1 µM (inactive)	> 10 µM (inactive)	84.3 µM (inactive)	42.7 µM (inactive)
COC(=O)C1CC/C(=N/C2c3ccccc3-c3ccccc32)N1 (configuration not stated)	> 10 µM (inactive)	> 100 µM (inactive)	32.7 µM (inactive)	> 100 µM (inactive)	> 100 µM (inactive)	> 100 µM (inactive)	> 100 µM (inactive)	57.9 µM (inactive)	> 100 µM (inactive)	74.8 µM (inactive)	58.6 µM (inactive)	61.5 µM (inactive)	> 100 µM (inactive)	> 100 µM (inactive)	> 100 µM (inactive)	–
CC(C)(C)C1CCC(CI)(N=[N+]=[N-])CC1 (configuration not stated)	–	> 100 µM (inactive)	> 100 µM (inactive)	> 100 µM (inactive)	> 100 µM (inactive)	> 100 µM (inactive)	> 100 µM (inactive)	> 100 µM (inactive)	> 100 µM (inactive)	> 100 µM (inactive)	> 100 µM (inactive)	79.1 µM (inactive)	> 100 µM (inactive)	> 100 µM (inactive)	> 100 µM (inactive)	33.7 µM (inactive)
Cc1[nH]c(=O)nc(N/N=C/c2ccc(O)cc2)c1C(=O)Nc1ccc(Cl)cc1	–	> 100 µM (inactive)	> 100 µM (inactive)	> 100 µM (inactive)	> 100 µM (inactive)	> 100 µM (inactive)	> 100 µM (inactive)	> 100 µM (inactive)	> 100 µM (inactive)	> 100 µM (inactive)	> 100 µM (inactive)	> 100 µM (inactive)	–	> 100 µM (inactive)	> 100 µM (inactive)	> 100 µM (inactive)
N#CC(C(=O)/C(=N\NC(N)=O)C(C#N)c1ccccc1)c1ccccc1 (configuration not stated)	–	> 100 µM (inactive)	> 100 µM (inactive)	> 100 µM (inactive)	> 100 µM (inactive)	> 100 µM (inactive)	> 100 µM (inactive)	> 100 µM (inactive)	> 100 µM (inactive)	> 100 µM (inactive)	> 100 µM (inactive)	> 100 µM (inactive)	> 100 µM (inactive)	> 100 µM (inactive)	> 100 µM (inactive)	> 100 µM (inactive)
COc1ccccc1NC(=O)CC(=O)n1nc(C)c(/N=N/c2ccccc2F)c1C	> 100 µM (inactive)	> 100 µM (inactive)	> 100 µM (inactive)	44.6 µM (inactive)	32.6 µM (inactive)	28.7 µM (inactive)	> 100 µM (inactive)	> 100 µM (inactive)	> 100 µM (inactive)	> 100 µM (inactive)	9.46 µM (inactive)	> 100 µM (inactive)	> 96.2 µM (inactive)	> 100 µM (inactive)	> 31.6 µM (inactive)	71.8 µM (inactive)
COc1ccc2c(c1)CCC(OS(=O)(=O)CC13CCC(CC1=O)C3(C)C)C2=O (configuration not stated)	15.6 µM (inactive)	35.6 µM (inactive)	18.1 µM (inactive)	18.7 µM (inactive)	29.2 µM (inactive)	22.1 µM (inactive)	37.8 µM (inactive)	23 µM (inactive)	> 100 µM (inactive)	25.7 µM (inactive)	31.1 µM (inactive)	19.7 µM (inactive)	17.3 µM (inactive)	31.3 µM (inactive)	24.3 µM (inactive)	24.9 µM (inactive)
CSc1ccc2c(cc1=O)C(NC(=O)c1ccccc1)CCc1cc(O)c(O)c(O)c1-2 (configuration not stated)	16.4 µM (inactive)	77.8 µM (inactive)	19 µM (inactive)	37.4 µM (inactive)	6.01 µM (inactive)	22.9 µM (inactive)	15.3 µM (inactive)	4.84 µM (inactive)	6.22 µM (inactive)	2.51 µM (inactive)	2.91 µM (inactive)	19.1 µM (inactive)	4.37 µM (inactive)	16.7 µM (inactive)	18.5 µM (inactive)	–
CCN(CC)CCNc1ccc2nnn3c4ccc(C)cc4c(=O)c1c23	3.61 µM (inactive)	10.2 µM (inactive)	3.85 µM (inactive)	5.22 µM (inactive)	14.9 µM (inactive)	10.2 µM (inactive)	13.2 µM (inactive)	–	–	13.2 µM (inactive)	10.8 µM (inactive)	4.62 µM (inactive)	11.7 µM (inactive)	6.08 µM (inactive)	3.78 µM (inactive)	3.37 µM (inactive)
